Values joined by “and” are separate entries in the source; they are usually repeats but may differ in a detail not shown here. Equal values may be shown once.
Legend:
[1] = target: T1, Genome polyprotein (dengue virus type 2, UniProt P29990); assay type: functional, Thailand/16681/1984
[2] = target: T1, Genome polyprotein; assay type: functional, Thailand/16681/1984; remark: listed apart in the source

T1 sequence (P29990 1346-1475 limits assumed): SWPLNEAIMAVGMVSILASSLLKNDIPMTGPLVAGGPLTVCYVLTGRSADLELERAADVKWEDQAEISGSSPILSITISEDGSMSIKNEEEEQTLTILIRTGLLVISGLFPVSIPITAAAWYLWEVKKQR
T1 sequence (P29990 1476-2093 limits assumed): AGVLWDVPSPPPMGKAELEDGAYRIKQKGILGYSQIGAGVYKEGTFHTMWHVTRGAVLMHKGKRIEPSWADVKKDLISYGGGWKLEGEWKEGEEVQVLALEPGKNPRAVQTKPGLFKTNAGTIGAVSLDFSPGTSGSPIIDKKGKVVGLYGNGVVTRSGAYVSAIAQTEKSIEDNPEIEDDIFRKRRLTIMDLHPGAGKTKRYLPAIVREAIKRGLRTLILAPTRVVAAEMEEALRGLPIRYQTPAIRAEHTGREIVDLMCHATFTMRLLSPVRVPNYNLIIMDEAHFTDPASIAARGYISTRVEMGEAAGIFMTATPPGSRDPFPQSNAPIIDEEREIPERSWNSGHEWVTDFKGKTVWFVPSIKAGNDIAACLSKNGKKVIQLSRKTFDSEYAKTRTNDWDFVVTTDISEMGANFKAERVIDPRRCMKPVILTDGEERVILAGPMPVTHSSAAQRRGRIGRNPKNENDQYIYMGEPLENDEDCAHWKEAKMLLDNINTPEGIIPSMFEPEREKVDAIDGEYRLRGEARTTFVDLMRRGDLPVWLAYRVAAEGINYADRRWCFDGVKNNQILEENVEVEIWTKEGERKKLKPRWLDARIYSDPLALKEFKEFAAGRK

SMILES	IC50 [1] [µM]	IC50 [2]
CC(C)c1noc2nc(C3CC3)cc(C(=O)Nc3cccc(CN)c3)c12	> 100	> 99.5 µM
NCc1cccc(NC(=O)c2cc(C3CC3)nc3ccc(Cl)cc23)c1	> 100	> 99.5 µM
NCc1ccc(NS(=O)(=O)c2ccc(Oc3ccccc3Cl)cc2)cc1	> 100	> 99.5 µM
O=C(Nc1cc(Cl)cc(C(=O)Nc2ccnc([C@H]3CCCN3)n2)c1)OCc1ccccc1	> 100	> 99.5 µM
NCc1cccc([C@H]2C[C@@H]2c2cc(Cl)cc(NC(=O)OCc3ccccc3)c2)c1	> 100	41 µM and 25.9 µM and 30 µM
Cc1cc(CN)cc(C)c1NS(=O)(=O)c1ccc(Oc2ccccc2Cl)cc1	> 100	> 99.5 µM
NC1(c2cccc(NS(=O)(=O)c3ccc(Oc4ccccc4Cl)cc3)c2)CCOCC1	> 100	> 99.5 µM
Cc1c(CN)cccc1NS(=O)(=O)c1ccc(Oc2ccccc2Cl)cc1	> 100	> 99.5 µM
N[C@H]1CCc2ncc(NS(=O)(=O)c3ccc(Oc4ccccc4Cl)cc3)cc2C1	> 100	> 99.5 µM
O=C(Nc1cc(Cl)cc(C(=O)Nc2cccc([C@H]3CCCCN3)c2)c1)OCc1ccccc1	> 100	> 99.5 µM
CCc1c(C(=O)Nc2cccc(CN)c2)c2cc(Cl)ccc2n1C	> 100	> 99.5 µM
O=c1ccc(N2CCN(Cc3c[nH]c4ccccc34)CC2)c[nH]1	> 100	> 99.5 µM
Cc1cc(=O)c(C(=O)Nc2cccc(CN)c2)nn1-c1ccccc1C(F)(F)F	> 100	> 99.5 µM
C[C@H]1CCN1C(=O)Cn1ccnc(N2CC[C@H](CO)C2)c1=O	> 100	> 99.5 µM
COc1cn(-c2cccc(C(F)(F)F)c2)nc1C(=O)Nc1cccc(CN)c1	> 100	> 99.5 µM
NCc1cccc(NC(=O)c2cc(C3CCCCC3)nc3ccc(F)cc23)c1	> 100	> 99.5 µM
NCc1cccc(NC(=O)c2cccc(Oc3ccc(Cl)c(Cl)c3)n2)c1	> 100	95.6 µM
Cc1cc(C(=O)Nc2cccc(CN)c2)n2nc(C(F)(F)F)cc2n1	> 100	86.7 µM
CC(C)(C)OC(=O)NCc1cccc(NC(=O)C[C@H](N)c2ccc(OCc3ccccc3)c(Br)c2)c1	> 100	> 99.5 µM
NC1(c2cccc(NC(=O)c3cc(Cl)cc(NC(=O)OCc4ccccc4)c3)c2)CCOCC1	> 100	> 99.5 µM
Cc1ccc(OCc2ccccc2Cl)c(C(=O)Nc2cccc(CN)c2)c1	> 100	99.5 µM

SMILES	IC50 [1] [µM]	IC50 [2]
CS(=O)(=O)Nc1cc(Cl)cc(C(=O)Nc2cccc(CN)c2)c1	> 100	> 99.5 µM
NCc1cccc(NC(=O)c2cc(CO)cc(NC(=O)OCc3ccccc3)c2)c1	> 100	> 99.5 µM
NCc1cccc(NC(=O)c2cccc3c2O[C@H](c2ccccc2)C(=O)N3)c1	> 100	> 99.5 µM
NCc1cc(Cl)cc(C(=O)Nc2cccc(C3CCNCC3)c2)c1	> 100	> 99.5 µM
COc1ccc(-c2cccc([C@H](NC(=O)OCc3ccccc3)C(=O)Nc3cccc(CN)c3)c2)c(C#N)c1	> 100	56.5 µM
NCc1cccc(NC(=O)c2cc(C(F)(F)F)ccc2SC2CCCC2)c1	> 100	> 99.5 µM
NCc1cccc(NC(=O)[C@H]2CCc3nnc(-c4ccc(F)cc4)n3C2)c1	> 100	> 99.5 µM
Cc1ccc(NS(=O)(=O)c2ccc(Oc3ccccc3Cl)cc2)cc1CN	> 100	> 99.5 µM
CCOc1cccc(-c2ccc(S(=O)(=O)Nc3cc4c(cc3C(=O)O)CCC4)cc2)c1	11.5	8.67 µM
Cc1ccc(Sc2ncccc2C(=O)Nc2cccc(CN)c2)cc1C	> 100	> 99.5 µM
NCc1cccc(NC(=O)c2cc(Cl)cc(NC(=O)NCc3ccccc3)c2)c1	> 100	> 99.5 µM
NCc1cccc(NC(=O)[C@H](NC(=O)OCc2ccccc2)C2CCN(C(=O)Cn3ccnc3)CC2)c1	> 100	> 99.5 µM
CC(C)c1nn(-c2ccccc2)cc1C(=O)Nc1cccc(CN)c1	> 100	> 99.5 µM
CCCN(C)C(=O)Cn1ccnc(N2CC[C@H](CO)C2)c1=O	> 100	> 99.5 µM
O=C(Nc1cc(Cl)cc(C(=O)Nc2nc([C@H]3CCCN3)cc(=O)[nH]2)c1)OCc1ccccc1	> 100	86.9 µM
CCc1onc(-c2ccc(Br)cc2)c1C(=O)Nc1cccc(CN)c1	> 100	> 99.5 µM
O=C(Nc1cc(Cl)cc(C(=O)NCC[C@H]2COCCN2)c1)OCc1ccccc1	> 100	> 99.5 µM
CC(C)(C)Cn1c(=O)[nH]c2cccc(C(=O)Nc3cccc(CN)c3)c21	> 100	> 99.5 µM
CC(C)(C)NS(=O)(=O)c1cccc(C(=O)Nc2cccc(CN)c2)c1	> 100	> 99.5 µM
O=C(Nc1cc(Cl)cc(C(=O)Nc2cccc([C@H]3CCCN3)c2)c1)OCc1ccccc1	> 100	95.3 µM
NCc1cccc(NC(=O)[C@@H]2C[C@@H](O)CN2C(=O)C23CC4CC(CC(C4)C2)C3)c1	> 100	> 99.5 µM

SMILES	IC50 [1] [µM]	IC50 [2]
NCc1cccc(NC(=O)c2cc3c(F)cc(F)c(F)c3[nH]2)c1	> 100	> 99.5 µM
NCc1ccc(NS(=O)(=O)c2ccc(Oc3ccccc3Cl)cc2)cc1Cl	> 100	> 99.5 µM
NCc1cccc(NC(=O)c2cc(C3CC3)nn2-c2ccccc2)c1	> 100	> 99.5 µM
CC(C)(C#N)c1cc(C(=O)Nc2cccc(CN)c2)cc(C(F)(F)F)c1	> 100	> 99.5 µM
N[C@H](CO)c1cccc(NC(=O)c2cc(Cl)cc(NC(=O)OCc3ccccc3)c2)c1	> 100	> 99.5 µM
Cc1c(F)cc(C(=O)Nc2cccc(CN)c2)c(F)c1NC(=O)OCc1ccccc1	100	69.8 µM
NCc1cccc(NC(=O)c2ccc(=O)n(Cc3ccccc3Cl)c2)c1	> 100	> 99.5 µM
NC1CN(c2ncccc2NS(=O)(=O)c2ccc(Oc3ccccc3Cl)cc2)C1	> 100	> 99.5 µM
C#Cc1cc(CN)ccc1NS(=O)(=O)c1ccc(Oc2ccccc2Cl)cc1	> 100	> 99.5 µM
CCc1cc(C(=O)Nc2cccc(CN)c2)sc1-c1ccc(Cl)cc1	> 100	19.7 µM and 24.8 µM
C=C(C)c1cc(NC(=O)OCc2ccccc2)cc(C(=O)Nc2cccc(CN)c2)c1	> 100	50.4 µM
O=C(Cn1ccnc(N2CC[C@H](CO)C2)c1=O)NCc1cc[nH]n1	> 100	> 99.5 µM
O=C(Cn1ccnc(N2CC[C@H](CO)C2)c1=O)N1CCOCC1	> 100	> 99.5 µM
Cc1ccc(C(=O)Nc2cccc(CN)c2)cc1NC(=O)Cc1ccncc1	> 100	> 99.5 µM
NC1(c2cc(C(F)(F)F)ccc2NS(=O)(=O)c2ccc(Oc3ccccc3Cl)cc2)CC1	> 100	> 99.5 µM
NCc1cccc(NC(=O)[C@H](NC(=O)OCc2ccccc2)c2ccc(OCc3ccccc3)c(Br)c2)c1	> 100	30.4 µM
NCc1cccc(NC(=O)c2nn(-c3ccccc3F)cc2Br)c1	> 100	> 99.5 µM
O=C(Nc1cc(Cl)cc(C(=O)Nc2cccc([C@H]3CNCCO3)c2)c1)OCc1ccccc1	> 100	> 99.5 µM
NCCc1cccc(NC(=O)[C@H]2[C@H]3CCCCC[C@H]3[C@H]2NC(=O)OCc2ccccc2)c1	12.1	8.41 µM and 7.22 µM
NCc1cccc(CCc2cc(Cl)cc(NC(=O)OCc3ccccc3)c2)c1	> 100	34.8 µM
NCc1cccc(NC(=O)c2cc(C(F)(F)F)nn2CC2CCC2)c1	> 100	> 99.5 µM

SMILES	IC50 [1] [µM]	IC50 [2]
NCCOc1ccnc(NS(=O)(=O)c2ccc(Oc3ccccc3Cl)cc2)c1	> 100	> 99.5 µM
NCc1cccc(NC(=O)C[C@H](CC(N)=O)c2ccc(F)cc2)c1	> 100	> 99.5 µM
N[C@H]1CCc2ccc(NC(=O)c3cc(Cl)cc(NC(=O)OCc4ccccc4)c3)cc21	> 100	91.2 µM
CS(=O)(=O)Nc1c(Cl)cc(Cl)cc1C(=O)Nc1cccc(CN)c1	> 100	> 99.5 µM
Cc1cc(CN)cc(NS(=O)(=O)c2ccc(Oc3ccccc3Cl)cc2)c1	> 100	> 99.5 µM
NCc1cccc(NC(=O)c2ccnc3[nH]c(C4CCOCC4)nc23)c1	> 100	> 99.5 µM
Cc1ccc(NC(=O)c2cc(Cl)ccc2Cl)c(C(=O)Nc2cccc(CN)c2)c1	> 100	> 99.5 µM
COc1ccc(COc2ccc([C@H](NC(=O)OCc3ccccc3)C(=O)Nc3cccc(CN)c3)cc2)cn1	> 100	> 99.5 µM
NC1(c2ccccc2NS(=O)(=O)c2ccc(Oc3ccccc3Cl)cc2)CC1	> 100	> 99.5 µM
NCc1cccc(NC(=O)[C@H](NC(=O)OCc2ccccc2)c2ccc(OCC3CCC3)cc2)c1	> 100	48.8 µM
c1ccc2c(CNC3CCN(Cc4cscn4)CC3)c[nH]c2c1	> 100	> 99.5 µM
CCCCCn1cc(C(=O)Nc2cccc(CN)c2)c2ccccc21	> 100	> 99.5 µM
CC(C)c1nc2c(C(=O)Nc3cccc(CN)c3)cccc2[nH]1	> 100	> 99.5 µM
Cc1ccc(-n2nc(C(=O)Nc3cccc(CN)c3)ccc2=O)cc1Cl	> 100	> 99.5 µM
COc1cc(C(=O)Nc2cccc(CN)c2)cc(NC(=O)OCc2ccccc2)c1Cl	> 100	> 99.5 µM
NC1(c2cccc(NS(=O)(=O)c3ccc(Oc4ccccc4Cl)cc3)c2)CCC1	> 100	> 99.5 µM
NCc1cccnc1NS(=O)(=O)c1ccc(Oc2ccccc2Cl)cc1	> 100	> 99.5 µM
NCc1cccc(NC(=O)c2nn(-c3ccc(Cl)c(F)c3)c3c2CCC3)c1	> 100	72.7 µM
CCC[C@H](Oc1ccc(Cl)cc1C)C(=O)Nc1cccc(CN)c1	> 100	> 99.5 µM
O=C(O)C[C@H](NC(=O)OCc1ccccc1)c1ccc(OCc2ccccc2)c(Br)c1	45.6	59.8 µM

Source: ChEMBL document CHEMBL5604063, “ASAP - DENV-2 NS2B-NS3 protease fluorescence dose response” (2024)
